According to PubChem BioAssay AID2082 (Sanford-Burnham Center for Chemical Genomics, 2009):

Target: Tyrosine-protein phosphatase non-receptor type 7 (Homo sapiens) (UniProt P35236)
Test: off-target HePTP activity blockade – biochemical, DiFMUP fluorescence, selectivity assay for VHR1 inhibitor project, SAR follow-up (AID 2082)
Settings: recombinant HePTP

Chain of Tyrosine-protein phosphatase non-receptor type 7 (Homo sapiens) (P35236 whole entry, looked up): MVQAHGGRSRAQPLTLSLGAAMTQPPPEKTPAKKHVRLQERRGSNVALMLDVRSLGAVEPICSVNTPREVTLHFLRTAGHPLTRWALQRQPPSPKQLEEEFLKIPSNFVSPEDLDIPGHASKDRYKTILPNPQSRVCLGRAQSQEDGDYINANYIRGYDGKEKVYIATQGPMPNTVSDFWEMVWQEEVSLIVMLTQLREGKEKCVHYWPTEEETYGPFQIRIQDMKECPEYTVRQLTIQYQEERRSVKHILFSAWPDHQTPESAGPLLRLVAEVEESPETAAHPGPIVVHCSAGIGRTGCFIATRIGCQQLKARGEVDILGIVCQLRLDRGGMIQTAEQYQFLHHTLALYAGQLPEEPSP

Row | SMILES | IC50 [nM]
1 | O=C1/C(=C/c2cn(-c3ccccc3)nc2-c2ccc(OCc3ccc(Cl)cc3)cc2)SC(=S)N1CCS(=O)(=O)O | 620
2 | O=C1/C(=C/c2cn(-c3ccccc3)nc2-c2ccc(OCc3ccccc3Cl)cc2)SC(=S)N1CCS(=O)(=O)O | 1200
3 | O=C1/C(=C/c2cn(-c3ccccc3)nc2-c2ccc(S(=O)(=O)N3CCCCC3)cc2)SC(=S)N1CCS(=O)(=O)O | 2400
4 | O=C1/C(=C/c2cn(-c3ccccc3)nc2-c2ccc(OCc3ccccc3)cc2)SC(=S)N1CCS(=O)(=O)O | 1500
5 | O=C1/C(=C/c2cn(-c3ccccc3)nc2-c2ccc(OCc3ccccc3F)cc2)SC(=S)N1CCS(=O)(=O)O | 870
